Assay results: patent US7205333B2 (priority 2000, dated 2007)
Converted amounts (≈) assume the structure as drawn. Read-outs that look alike come from different tables or passages of the source.

Tests used:
A/Sydney/5/97 = assay: Inhibition of cytopathic effect (CPE) of influenza virus replication in MDCK cells; conditions: for EC50 / IC50: Influenza A virus, MDCK; for EC50: read-out: EC50 on Influenza A/Sydney/5/97
A/Victoria/3/75 = assay: as above
Influenza A/WSN/33 = assay: Influenza plaque assay in MDCK cell monolayers; conditions: Influenza A virus, 96 h, read-out: EC50 on Influenza A/WSN/33
[1] = system: Influenza A/Victoria/3/75; set-up: species or system mice; conditions: mouse, in vivo
B/Harbin/7/95 = assay: Inhibition of cytopathic effect (CPE) of influenza virus replication in MDCK cells; conditions: for EC50 / IC50: Influenza B virus, MDCK; for EC50: read-out: EC50 on Influenza B/Harbin/7/95
[2] = system: Influenza A/Victoria/3/75; set-up: species or system mice; conditions: mouse, in vivo; remark: listed apart in the source
[3] = system: Influenza A/Singapore/1/57; type: in vivo; set-up: Effectiveness: unit: %; conditions: A/Singapore/1/57, lungs 1 day post infection; for Effectiveness / Mean Virus Titre (logTCID50/ml): mice
[4] = system: Influenza A/Victoria/3/75; assay: Influenza plaque assay in MDCK cell monolayers; conditions: Influenza A virus, 96 h, read-out: EC50 on Influenza A/Victoria/3/75
[5] = system: Influenza B/Victoria/1/87; assay: Influenza plaque assay in MDCK cell monolayers; conditions: Influenza B virus, 96 h, read-out: EC50 on Influenza B/Victoria/1/87
[6] = Long duration of action: level of compound in lung tissue after intra-tracheal dosing; type: in vivo, Rodents; conditions: 0.4 mg/kg intra-tracheal, LC-MS/MS, in parallel with Zanamivir
Protocol: Rodents are anaesthetised and dosed with compound of interest by the intra-tracheal route at a dose volume of 0.8 ml/kg. The rodent is then held in the vertical position until full recovery is achieved. At different time points, for example, 2, 8, 24 and 48 hours post-dose, levels of compound in the lung tissue are assessed by analytical methods. Any analytical method suitable for detection of this type of compound may-be used. The time at which levels of compound fall below the sensitivity of the analytical techniques identified will determine the residency time of the compound in lung tissue.
The multimeric Compounds No 3, 4 and 20 of the invention were tested in parallel with Zanamivir [Compound (A)] using a dose of 0.4 mg/kg for each compound and assessing the level of compound in the lung tissue after 48 and 168 hours, using LC-MS/MS.

[7] = CPE results, same protocol as b341, MDCK cells

Structure (SMILES)	EC50 (A/Sydney/5/97) [ng/mL]	IC50 (A/Sydney/5/97; read-out: IC50 nM) [nM]	IC50 (A/Sydney/5/97; read-out: IC50 ng/ml) [ng/mL]	IC50 (A/Victoria/3/75; read-out: IC50 nM) [nM]	IC50 (A/Victoria/3/75; read-out: IC50 ng/ml) [ng/mL]	EC50 (B/Harbin/7/95) [ng/mL]	IC50 (B/Harbin/7/95; read-out: IC50 nM) [nM]	IC50 (B/Harbin/7/95; read-out: IC50 ng/ml) [ng/mL]	% Effectiveness [2] [%]	Number of virus free mice [2]	Number of virus free mice ([3]; 1 mg/kg)	Effectiveness ([3]; 1 mg/kg)	Mean Virus Titre (logTCID50/ml) ([3]; 1 mg/kg)	EC50 [4] [ng/mL]	EC50 [5] [ng/mL]	Mean Virus Titre (logTCID50/ml) [2] [logTCID50/ml]	other results
CC(=O)N[C@H]1[C@H]([C@H](O)[C@H](O)CO)OC(C(=O)O)=C[C@@H]1NC(=N)N [Zanamivir, 4-guanidino-2-deoxy-2,3-dehydro-N-acetylneuraminic acid, reference compound]	32.7 (≈ 98.3 nM)	77.7	25.8	73.9	24.6	14.2 (≈ 42.7 nM)	31.2	10.4	−43.4	0	0	74.88	5.18	3.5 (≈ 10.5 nM)	16 (≈ 48.1 nM)		EC50 (Influenza A/WSN/33): 22.7 ng/mL (≈ 68.3 nM); Effectiveness [1]: 81.76; Number of virus free mice [1]: 0; Number of virus free mice ([3]; 0.2 mg/kg): 0; Effectiveness ([3]; 0.2 mg/kg): 33.17; Mean Virus Titre (logTCID50/ml) ([3]; 0.2 mg/kg): 5.60 logTCID50/ml; Number of virus free mice ([3]; 5 mg/kg): 1; Effectiveness ([3]; 5 mg/kg): 93.69; Mean Virus Titre (logTCID50/ml) ([3]; 5 mg/kg): 4.58 logTCID50/ml
CC(=O)N[C@H]1[C@H]([C@H](OC(=O)NCCCCCCNC(=O)CN(CCN(CC(=O)NCCCCCCNC(=O)O[C@H](C(O)CO)[C@@H]2OC(C(=O)O)=C[C@H](NC(=N)N)[C@H]2NC(C)=O)CC(=O)NCCCCCCNC(=O)O[C@H](C(O)CO)[C@@H]2OC(C(=O)O)=C[C@H](NC(=N)N)[C@H]2NC(C)=O)CC(=O)NCCCCCCNC(=O)O[C@H](C(O)CO)[C@@H]2OC(C(=O)O)=C[C@H](NC(=N)N)[C@H]2NC(C)=O)C(O)CO)OC(C(=O)O)=C[C@@H]1NC(=N)N (some centres unmarked) [Compound 3]									59	4	1	99.47	3.78	0.1 (≈ 0.0472 nM)	0.3 (≈ 0.142 nM)	4.0	level of compound in the lung tissue after 48 and 168 hours [6]: retained in the lung at much higher concentrations than the monomer Zanamivir (A); Number of virus free mice ([3]; 0.01 mg/kg): 0; Effectiveness ([3]; 0.01 mg/kg): 68.38; Mean Virus Titre (logTCID50/ml) ([3]; 0.01 mg/kg): 5.55 logTCID50/ml; Number of virus free mice ([3]; 0.1 mg/kg): 0; Effectiveness ([3]; 0.1 mg/kg): 95.53; Mean Virus Titre (logTCID50/ml) ([3]; 0.1 mg/kg): 4.70 logTCID50/ml
CC(=O)N[C@H]1[C@H]([C@H](OC(=O)NCCCCCCNC(=O)COc2c3cc(C(C)(C)C)cc2Cc2cc(C(C)(C)C)cc(c2OCC(=O)NCCCCCCNC(=O)O[C@@H]([C@@H]2OC(C(=O)O)=C[C@H](NC(=N)N)[C@H]2NC(C)=O)[C@H](O)CO)Cc2cc(C(C)(C)C)cc(c2OCC(=O)NCCCCCCNC(=O)O[C@@H]([C@@H]2OC(C(=O)O)=C[C@H](NC(=N)N)[C@H]2NC(C)=O)[C@H](O)CO)Cc2cc(C(C)(C)C)cc(c2OCC(=O)NCCCCCCNC(=O)O[C@@H]([C@@H]2OC(C(=O)O)=C[C@H](NC(=N)N)[C@H]2NC(C)=O)[C@H](O)CO)C3)[C@H](O)CO)OC(C(=O)O)=C[C@@H]1NC(=N)N [Compound 23]									78.2	0						4.7	EC50 on Influenza A/Sydney/5/97 (A/Sydney/5/97; [7]): 27.714; EC50 on Influenza B/Harbin/7/95 (B/Harbin/7/95; [7]): 9.263
CC(=O)N[C@H]1[C@H]([C@H](OC(=O)NCCCCCCN)[C@H](O)CO)OC(C(=O)O)=C[C@@H]1NC(=N)N [Compound (2) TFA2, 5-acetamido-7-(6-aminohexylcarbamoyloxy)-4-guanidino-2,3,4,5-tetradeoxy-D-glycero-D-galacto-non-2-enopyranosonic acid]		588	413	52.7	37		259	182									
CC(=O)N[C@H]1[C@H]([C@H](OC(=O)NCCCCCCNC(=O)CN(CCN(CC(=O)NCCCCCCNC(=O)O[C@@H]([C@@H]2OC(C(=O)O)=C[C@H](NC(=N)N)[C@H]2NC(C)=O)[C@H](O)CO)CC(=O)NCCCCCCNC(=O)O[C@@H]([C@@H]2OC(C(=O)O)=C[C@H](NC(=N)N)[C@H]2NC(C)=O)[C@H](O)CO)CC(=O)O)[C@H](O)CO)OC(C(=O)O)=C[C@@H]1NC(=N)N.O=C(O)C(F)(F)F [Compound 14, (19R,20R)-19-((2R,3R,4S)-3-(acetylamino)-4-{[amino (imino)methyl]amino}-6-carboxy-3,4-dihydro-2H-pyran-2-yl)-3,6-bis[2-({6-[({[(1R,2R)-1-((2R,3R,4S)-3-(acetylamino)-4-{[amino(imino)methyl]amino}-6-carboxy-3,4-dihydro-2H-pyran-2-yl)-2,3-dihydroxypropyl]oxy}carbonyl)amino]hexyl}amino)-2-oxoethyl]-20,21-dihydroxy-8,17-dioxo-18-oxa-3,6,9,16-tetraazahenicosan-1-oic acid tris(trifluoroacetate)]															6.3		
O=Cc1cc(C=O)cc(C=O)c1 [Compound 29]	0.089 (≈ 0.549 nM)					0.882 (≈ 5.44 nM)											
